Assay results published in patent publication US8153805B2, “Biaryl derivatives” (Hoffmann-La Roche Inc., priority 2007, dated 2012).

target: T1, human CCR2B (Homo sapiens, UniProt P41597); test: Calcium mobilization assay (FLIPR, MCP-1 stimulated CHOK1-CCR2B-A5 cells); format: cell-based; conditions: antagonist activity vs 20 nM MCP-1, CHOK1-CCR2B-A5 cells
T1 construct: host or cells: CHO-K1 (CHOK1-CCR2B-A5)
T1 sequence (P41597 1-360 isoform P41597-2): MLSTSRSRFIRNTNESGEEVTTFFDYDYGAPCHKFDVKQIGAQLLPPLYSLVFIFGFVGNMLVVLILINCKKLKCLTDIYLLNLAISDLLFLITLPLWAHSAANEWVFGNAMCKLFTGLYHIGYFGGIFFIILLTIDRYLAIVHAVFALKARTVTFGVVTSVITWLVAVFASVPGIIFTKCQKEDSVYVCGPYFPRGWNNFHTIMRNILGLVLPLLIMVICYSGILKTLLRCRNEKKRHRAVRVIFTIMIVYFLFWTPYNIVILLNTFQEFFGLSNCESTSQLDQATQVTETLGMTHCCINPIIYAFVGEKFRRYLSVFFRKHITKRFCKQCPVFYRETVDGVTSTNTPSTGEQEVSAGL
Description: Calcium Mobilization Assay
CHOK1-CCR2B-A5 cells (from Euroscreen) stably overexpressing the human chemokine receptor 2 isoform B were cultured in Nutrient Hams F12 medium supplemented with 5% FBS, 100 U/ml penicillin, 100 μg/ml streptomycin, 400 μg/ml G418 and 5 μg/ml puromycin.
For the assay cells were grown overnight in 384-well black clear flat bottom polystyrene plates (Costar) at 37° C. at 5% CO2. After washing with DMEM, 20 mM Hepes, 2.5 mM probenecid, 0.1% BSA (DMEM assay buffer) cells were loaded with 4 μM Fluo-4 in the same DMEM assay buffer for 2 hours at 30° C. Excess dye was removed and cells were washed with DMEM assay buffer. 384-well compound plates were prepared with DMEM assay buffer/0.5% DMSO with or without various concentrations of test compounds. Usually compounds were tested for agonist and antagonist activity.
Test compounds were added to the assay plate and agonist activity was monitored as fluorescence for 80 seconds with a FLIPR (488 nm excitation; 510-570 nm emission; Molecular Devices). After 20-30 min. of incubation at 30° C., 20 nM MCP-1 (R&D; Roche) was added and fluorescence was monitored again for 80 seconds. Increases in intracellular calcium are reported as maximum fluorescence after agonist exposure minus basal fluorescence before exposure. Antagonist activity is indicated as inhibitor concentration required for 50% inhibition of specific calcium increases.

Question: With `Cc1cc(-c2cccc(OC(F)(F)F)c2)cc(C)c1C(=O)N1CCC(N2CCCC2)CC1` [Example 1, (3,5-Dimethyl-3′-trifluoromethoxy-biphenyl-4-yl)-(4-pyrrolidin-1-yl-piperidin-1-yl)-methanone] as the molecule, how does the IC50 read?
Answer: The IC50 was 60 nM.

Question: For `Cc1cc(-c2cccc(C(F)(F)F)c2)cc(C)c1C(=O)N1CCC(N2CCCC2)CC1` [Example 2, (3,5-Dimethyl-3′-trifluoromethyl-biphenyl-4-yl)-(4-pyrrolidin-1-yl-piperidin-1-yl)-methanone], which IC50 is on record?
Answer: The IC50 was 21 nM.

Question: With `Cc1cc(-c2cccc(OC(F)(F)F)c2)ccc1C(=O)N1CCC(N2CCCC2)CC1` [Example 6, (3-Methyl-3′-trifluoromethoxy-biphenyl-4-yl)-(4-pyrrolidin-1-yl-piperidin-1-yl)-methanone] as the molecule, how does the IC50 read?
Answer: Its IC50 is 430 nM.

Question: `Cc1cc(-c2cccc(C(F)(F)F)c2)ccc1C(=O)N1CCC(N2CCCC2)CC1` [Example 7, (3-Methyl-3′-trifluoromethyl-biphenyl-4-yl)-(4-pyrrolidin-1-yl-piperidin-1-yl)-methanone] was tested. Which IC50 did it give?
Answer: Its IC50 is 150 nM.

Question: How did the IC50 turn out when `Cc1cc(-c2cccc(C(F)(F)F)c2)cc(C)c1C(=O)N1CCC(N2CCC[C@H]2CO)CC1` [Example 9, (3,5-Dimethyl-3′-trifluoromethyl-biphenyl-4-yl)-[4-((S)-2-hydroxymethyl-pyrrolidin-1-yl)-piperidin-1-yl]-methanone] was run?
Answer: Its IC50 is 9 nM.

Question: For `Cc1cc(-c2cccc(OC(F)(F)F)c2)cc(C)c1C(=O)N1CCC(N2CCC[C@H]2CO)CC1` [Example 10, (3,5-Dimethyl-3′-trifluoromethoxy-biphenyl-4-yl)-[4-((S)-2-hydroxymethyl-pyrrolidin-1-yl)-piperidin-1-yl]-methanone], which IC50 is on record?
Answer: The IC50 was 39 nM.

Question: Which IC50 does the source give for `Cc1nc(-c2cccc(C(F)(F)F)c2)nc(C)c1C(=O)N1CCC(N2CCCC2)CC1` [Example 13, [4,6-Dimethyl-2-(3-trifluoromethyl-phenyl)-pyrimidin-5-yl]-(4-pyrrolidin-1-yl-piperidin-1-yl)-methanone] here?
Answer: Its IC50 is 190 nM.

Question: For `Cc1cc(-c2cncc(C(F)(F)F)c2)cc(C)c1C(=O)N1CCC(N2CCC[C@H]2CO)CC1` [Example 14, [2,6-Dimethyl-4-(5-trifluoromethyl-pyridin-3-yl)-phenyl]-[4-((S)-2-hydroxymethyl-pyrrolidin-1-yl)-piperidin-1-yl]-methanone], which IC50 is on record?
Answer: The IC50 was 48 nM.

Question: `Cc1nc(-c2cccc(C(F)(F)F)c2)nc(C)c1C(=O)N1CCC(N2CCC[C@H]2CO)CC1` [Example 16, [4,6-Dimethyl-2-(3-trifluoromethyl-phenyl)-pyrimidin-5-yl]-[4-((S)-2-hydroxymethyl-pyrrolidin-1-yl)-piperidin-1-yl]-methanone] was tested. Which IC50 did it give?
Answer: The IC50 was 310 nM.

Question: `Cc1nc(-c2cccc(C(F)(F)F)c2)nc(C2CC2)c1C(=O)N1CCC(N2CCCC2)CC1` [Example 18, [4-Cyclopropyl-6-methyl-2-(3-trifluoromethyl-phenyl)-pyrimidin-5-yl]-(4-pyrrolidin-1-yl-piperidin-1-yl)-methanone] was tested. Which IC50 did it give?
Answer: Its IC50 is 490 nM.

Question: Which IC50 does the source give for `Cc1nc(-c2cccc(C(F)(F)F)c2)nc(C2CC2)c1C(=O)N1CCC(N2CCC[C@H]2CO)CC1` [Example 19, [4-Cyclopropyl-6-methyl-2-(3-trifluoromethyl-phenyl)-pyrimidin-5-yl]-[4-((S)-2-hydroxymethyl-pyrrolidin-1-yl)-piperidin-1-yl]-methanone] here?
Answer: The IC50 was 990 nM.

Question: Which IC50 does the source give for `Cc1cc(-c2cccc(C(F)(F)F)c2)cc(C)c1C(=O)N1CCC(N2CCC(O)CC2)CC1` [Example 22, (3,5-Dimethyl-3′-trifluoromethyl-biphenyl-4-yl)-(4-hydroxy-[1,4′]bipiperidinyl-1′-yl)-methanone] here?
Answer: Its IC50 is 55 nM.

Question: For `Cc1cc(-c2cncc(C(F)(F)F)c2)cc(C)c1C(=O)N1CCC(N2CCC(O)CC2)CC1` [Example 24, [2,6-Dimethyl-4-(5-trifluoromethyl-pyridin-3-yl)-phenyl]-(4-hydroxy-[1,4′]bipiperidinyl-1′-yl)-methanone], which IC50 is on record?
Answer: Its IC50 is 270 nM.

Question: With `Cc1cc(-c2cccc(C(F)(F)F)c2)nc(C)c1C(=O)N1CCC(N2CCCC2)CC1` [Example 27, [2,4-Dimethyl-6-(3-trifluoromethyl-phenyl)-pyridin-3-yl]-(4-pyrrolidin-1-yl-piperidin-1-yl)-methanone] as the molecule, how does the IC50 read?
Answer: The IC50 was 21 nM.

Question: For `Cc1cc(-c2cccc(OC(F)(F)F)c2)nc(C)c1C(=O)N1CCC(N2CCCC2)CC1` [Example 28, [2,4-Dimethyl-6-(3-trifluoromethoxy-phenyl)-pyridin-3-yl]-(4-pyrrolidin-1-yl-piperidin-1-yl)-methanone], which IC50 is on record?
Answer: Its IC50 is 79 nM.

Question: For `Cc1cc(-c2cccc(OC(F)(F)F)c2)nc(C)c1C(=O)N1CCC(N2CCC[C@H]2CO)CC1` [Example 29, [2,4-Dimethyl-6-(3-trifluoromethoxy-phenyl)-pyridin-3-yl]-[4-((S)-2-hydroxymethyl-pyrrolidin-1-yl)-piperidin-1-yl]-methanone], which IC50 is on record?
Answer: The IC50 was 150 nM.

Question: How did the IC50 turn out when `Cc1cc(-c2cccc(C(F)(F)F)c2)nc(C)c1C(=O)N1CCC(N2CCC[C@H]2CO)CC1` [Example 30, [2,4-Dimethyl-6-(3-trifluoromethyl-phenyl)-pyridin-3-yl]-[4-((S)-2-hydroxymethyl-pyrrolidin-1-yl)-piperidin-1-yl]-methanone] was run?
Answer: The IC50 was 67 nM.

Question: With `O=C(c1c(F)cc(-c2cccc(C(F)(F)F)c2)cc1F)N1CCC(N2CCCC2)CC1` [Example 39, (3,5-Difluoro-3′-trifluoromethyl-biphenyl-4-yl)-(4-pyrrolidin-1-yl-piperidin-1-yl)-methanone] as the molecule, how does the IC50 read?
Answer: Its IC50 is 89 nM.

Question: With `O=C(c1c(F)cc(-c2cccc(OC(F)(F)F)c2)cc1F)N1CCC(N2CCCC2)CC1` [Example 40, (3,5-Difluoro-3′-trifluoromethoxy-biphenyl-4-yl)-(4-pyrrolidin-1-yl-piperidin-1-yl)-methanone] as the molecule, how does the IC50 read?
Answer: Its IC50 is 220 nM.

Question: With `Cc1cc(-c2cncc(C(F)(F)F)c2)nc(C)c1C(=O)N1CCC(N2CCCC2)CC1` [Example 42, (4,6-Dimethyl-5′-trifluoromethyl-[2,3′]bipyridinyl-5-yl)-(4-pyrrolidin-1-yl-piperidin-1-yl)-methanone] as the molecule, how does the IC50 read?
Answer: The IC50 was 240 nM.

Question: `Cc1cc(-c2cncc(C(F)(F)F)c2)nc(C)c1C(=O)N1CCC(N2CCC[C@H]2CO)CC1` [Example 43, (4,6-Dimethyl-5′-trifluoromethyl-[2,3′]bipyridinyl-5-yl)-[4-((S)-2-hydroxymethyl-pyrrolidin-1-yl)-piperidin-1-yl]-methanone] was tested. Which IC50 did it give?
Answer: The IC50 was 480 nM.

Question: For `COc1cc(-c2cccc(C(F)(F)F)c2)cc(C)c1C(=O)N1CCC(N2CCCC2)CC1` [Example 44, (3-Methoxy-5-methyl-3′-trifluoromethyl-biphenyl-4-yl)-(4-pyrrolidin-1-yl-piperidin-1-yl)-methanone], which IC50 is on record?
Answer: Its IC50 is 76 nM.

Question: With `Cc1cc(-c2cccc(C(F)(F)F)c2)cc(O)c1C(=O)N1CCC(N2CCCC2)CC1` [Example 45, (3-Hydroxy-5-methyl-3′-trifluoromethyl-biphenyl-4-yl)-(4-pyrrolidin-1-yl-piperidin-1-yl)-methanone] as the molecule, how does the IC50 read?
Answer: Its IC50 is 48 nM.

Question: With `O=C(c1ccc(-c2cccc(C(F)(F)F)c2)cc1Cl)N1CCC(N2CCCC2)CC1` [Example 46, (3-Chloro-3′-trifluoromethyl-biphenyl-4-yl)-(4-pyrrolidin-1-yl-piperidin-1-yl)-methanone] as the molecule, how does the IC50 read?
Answer: Its IC50 is 122 nM.

Question: Which IC50 does the source give for `Cc1cc(-c2cccc(C(F)(F)F)c2)cc(-c2cncnc2)c1C(=O)N1CCC(N2CCCC2)CC1` [Example 47, (5-Methyl-3-pyrimidin-5-yl-3′-trifluoromethyl-biphenyl-4-yl)-(4-pyrrolidin-1-yl-piperidin-1-yl)-methanone] here?
Answer: Its IC50 is 12 nM.

Question: Which IC50 does the source give for `Cc1cc(-c2cccc(C(F)(F)F)c2)cc(-c2cccnc2)c1C(=O)N1CCC(N2CCCC2)CC1` [Example 48, (5-Methyl-3-pyridin-3-yl-3′ trifluoromethyl-biphenyl-4-yl)-(4-pyrrolidin-1-yl-piperidin-1-yl)-methanone] here?
Answer: The IC50 was 16 nM.

Question: For `COc1nc(-c2cccc(C(F)(F)F)c2)cc(C)c1C(=O)N1CCC(N2CCCC2)CC1` [Example 50, [2-Methoxy-4-methyl-6-(3-trifluoromethyl-phenyl)-pyridin-3-yl]-(4-pyrrolidin-1-yl-piperidin-1-yl)-methanone], which IC50 is on record?
Answer: Its IC50 is 82 nM.

Question: Which IC50 does the source give for `Cc1cc(-c2cccc(C(F)(F)F)c2)nc(O)c1C(=O)N1CCC(N2CCCC2)CC1` [Example 51, [2-Hydroxy-4-methyl-6-(3-trifluoromethyl-phenyl)-pyridin-3-yl]-(4-pyrrolidin-1-yl-piperidin-1-yl)-methanone; 4-Methyl-3-(4-pyrrolidin-1-yl-piperidine-1-carbonyl)-6-(3-trifluoromethyl-phenyl)-1H-pyridin-2-one (tautomers)] here?
Answer: Its IC50 is 17 nM.

Question: For `Cc1cc(-c2cccc(C(F)(F)F)c2)nc(OCCO)c1C(=O)N1CCC(N2CCCC2)CC1` [Example 53, [2-(2-Hydroxy-ethoxy)-4-methyl-6-(3-trifluoromethyl-phenyl)-pyridin-3-yl]-(4-pyrrolidin-1-yl-piperidin-1-yl)-methanone], which IC50 is on record?
Answer: The IC50 was 11 nM.
